From ChEMBL document CHEMBL5620406, “Synthesis and biological evaluation of novel pyrazole amides as potent mitochondrial complex I inhibitors” (Eur J Med Chem, 2023)
Calls of active or inactive are those of the source. No cut-off for these calls is given here.

Assays:
[1] = biological target: Cytochrome P450 2D6 (Homo sapiens, UniProt P10635); test: Inhibition of CYP2D6 in human liver microsomes incubated for 20 mins in presence of NADPH by LC/MS/MS analysis; assay type: ADME, Microsome
[2] = Inhibition of mitochondrial complex I (unknown origin) incubated for 15 mins by microplate reader analysis; design: species or system Homo sapiens
[3] = species on record: Homo sapiens; test: Inhibition of mitochondrial complex I (unknown origin) at 1 uM incubated for 15 mins by microplate reader analysis relative to control
[4] = tested on: KG-1; test: Antiproliferative activity against human KG-1 cells assessed as inhibition of cell growth at 0.1 nM incubated for 96 hrs in presence of galactose by MTT assay; assay type: functional, cell-based
[5] = tested on: HCT-116; test: Induction of mitochondrial dysfunction in human HCT-116 cells assessed as attenuation of oxygen consumption rate incubated for 24 hrs by Seahorse XFe24 analyzer; assay type: functional, cell-based; conditions: dose 2-10 nM
[6] = tested on: HCT-116; test: Induction of mitochondrial dysfunction in human HCT-116 cells assessed as attenuation of ATP coupling oxygen consumption rate incubated for 24 hrs by Seahorse XFe24 analyzer; assay type: functional, cell-based; conditions: dose 2-10 nM
[7] = tested on: HCT-116; test: Induction of mitochondrial dysfunction in human HCT-116 cells assessed as attenuation of maximum oxygen consumption rate incubated for 24 hrs by Seahorse XFe24 analyzer; assay type: functional, cell-based; conditions: dose 2-10 nM
[8] = tested on: HCT-116; test: Induction of mitochondrial dysfunction in human HCT-116 cells assessed as attenuation of oxygen consumption rate at 2 nM incubated for 24 hrs by Seahorse XFe24 analyzer; assay type: functional, cell-based
[9] = tested on: KG-1; test: Induction of ROS generation in human KG-1 cells at 1 nM measured for 30 mins by DCFDA-staining based flow cytometry analysis; assay type: functional, cell-based
[10] = tested on: KG-1; test: Antitumor activity against human KG-1 cells xenografted in NOD-SCID mouse assessed as tumor growth inhibition at 5 mg/kg, ip qd administered 5 consecutive days per week for 24 days; assay type: functional; conditions: KG-1, 576 h, time 24 day, read-out: TGI
[11] = tested on: HCT-116; test: Induction of mitochondrial membrane potential depolarization in human HCT-116 cells at 2 nM incubated for 24 hrs by JC-1 staining based flow cytometry analysis; assay type: functional
[12] = Acute toxicity in BALB/c mouse assessed as effect on ALT level at 68 mg/kg, ip measured on day 14; assay type: organism-based; conditions: in vivo, 336 h, time 14 day
[13] = Acute toxicity in BALB/c mouse assessed as effect on AST level at 68 mg/kg, ip measured on day 14; assay type: organism-based; conditions: in vivo, 336 h, time 14 day
[14] = Acute toxicity in BALB/c mouse assessed as effect on TP level at 68 mg/kg, ip measured on day 14; assay type: organism-based; conditions: in vivo, 336 h, time 14 day
[15] = Acute toxicity in BALB/c mouse assessed as effect on RBC level at 68 mg/kg, ip measured on day 14; assay type: organism-based, Erythrocyte; conditions: in vivo, 336 h, time 14 day
[16] = Acute toxicity in BALB/c mouse assessed as effect on NEUT level at 68 mg/kg, ip measured on day 14; assay type: organism-based; conditions: in vivo, 336 h, time 14 day
[17] = Acute toxicity in BALB/c mouse assessed as liver damage at 40 to 68 mg/kg, ip measured on day 14 by H and E staining based analysis; assay type: organism-based; conditions: in vivo, 336 h, dose 40-68 mg/kg, time 14 day
[18] = Acute toxicity in BALB/c mouse assessed as spleen damage at 40 to 68 mg/kg, ip measured on day 14 by H and E staining based analysis; assay type: organism-based; conditions: in vivo, 336 h, dose 40-68 mg/kg, time 14 day
[19] = Acute toxicity in BALB/c mouse assessed as kidney damage at 40 to 68 mg/kg, ip measured on day 14 by H and E staining based analysis; assay type: organism-based; conditions: in vivo, 336 h, dose 40-68 mg/kg, time 14 day
[20] = Toxicity in NOD-SCID mouse xenografted with human KG-1 cells assessed as change in body weight at 5 mg/kg, ip qd administered 5 consecutive days per week for 24 days; assay type: organism-based; conditions: in vivo, 576 h, time 24 day
[21] = Toxicity in NOD-SCID mouse xenografted with human KG-1 cells assessed as effect on ALP level at 5 mg/kg, ip qd administered 5 consecutive days per week for 24 days; assay type: organism-based; conditions: in vivo, 576 h, time 24 day
[22] = Toxicity in NOD-SCID mouse xenografted with human KG-1 cells assessed as effect on AST level at 5 mg/kg, ip qd administered 5 consecutive days per week for 24 days; assay type: organism-based; conditions: in vivo, 576 h, time 24 day
[23] = Toxicity in NOD-SCID mouse xenografted with human KG-1 cells assessed as effect on CREA level at 5 mg/kg, ip qd administered 5 consecutive days per week for 24 days; assay type: organism-based; conditions: in vivo, 576 h, time 24 day
[24] = Toxicity in NOD-SCID mouse xenografted with human KG-1 cells assessed as effect on GLB level at 5 mg/kg, ip qd administered 5 consecutive days per week for 24 days; assay type: organism-based; conditions: in vivo, 576 h, time 24 day
[25] = Toxicity in NOD-SCID mouse xenografted with human KG-1 cells assessed as effect on GLU level at 5 mg/kg, ip qd administered 5 consecutive days per week for 24 days; assay type: organism-based; conditions: in vivo, 576 h, time 24 day
[26] = Toxicity in NOD-SCID mouse xenografted with human KG-1 cells assessed as effect on TRIGL level at 5 mg/kg, ip qd administered 5 consecutive days per week for 24 days; assay type: organism-based; conditions: in vivo, 576 h, time 24 day
[27] = Toxicity in NOD-SCID mouse xenografted with human KG-1 cells assessed as effect on WBC count at 5 mg/kg, ip qd administered 5 consecutive days per week for 24 days; assay type: organism-based; conditions: in vivo, 576 h, time 24 day
[28] = Toxicity in NOD-SCID mouse xenografted with human KG-1 cells assessed as effect on lymphocyte count at 5 mg/kg, ip qd administered 5 consecutive days per week for 24 days; assay type: organism-based; conditions: in vivo, 576 h, time 24 day
[29] = Toxicity in NOD-SCID mouse xenografted with human KG-1 cells assessed as effect on RBC count at 5 mg/kg, ip qd administered 5 consecutive days per week for 24 days; assay type: organism-based, Erythrocyte; conditions: in vivo, 576 h, time 24 day
[30] = Toxicity in NOD-SCID mouse xenografted with human KG-1 cells assessed as effect on HGB count at 5 mg/kg, ip qd administered 5 consecutive days per week for 24 days; assay type: organism-based; conditions: in vivo, 576 h, time 24 day
[31] = Toxicity in NOD-SCID mouse xenografted with human KG-1 cells assessed as effect on MCH level at 5 mg/kg, ip qd administered 5 consecutive days per week for 24 days; assay type: organism-based; conditions: in vivo, 576 h, time 24 day
[32] = Toxicity in NOD-SCID mouse xenografted with human KG-1 cells assessed as effect on MPV at 5 mg/kg, ip qd administered 5 consecutive days per week for 24 days; assay type: organism-based; conditions: in vivo, 576 h, time 24 day
[33] = Toxicity in NOD-SCID mouse xenografted with human KG-1 cells assessed as effect on heart damage at 5 mg/kg, ip qd administered 5 consecutive days per week for 24 days by H and E staining based analysis; assay type: organism-based; conditions: in vivo, 576 h, time 24 day
[34] = Toxicity in NOD-SCID mouse xenografted with human KG-1 cells assessed as effect on spleen damage at 5 mg/kg, ip qd administered 5 consecutive days per week for 24 days by H and E staining based analysis; assay type: organism-based; conditions: in vivo, 576 h, time 24 day
[35] = Toxicity in NOD-SCID mouse xenografted with human KG-1 cells assessed as effect on lung damage at 5 mg/kg, ip qd administered 5 consecutive days per week for 24 days by H and E staining based analysis; assay type: organism-based; conditions: in vivo, 576 h, time 24 day
[36] = Apparent permeability across apical to basolateral side in human Caco-2 cells incubated for 120 mins by LC-MS/MS analysis; assay type: ADME, cell-based
[37] = Apparent permeability across basolateral side to apical in human Caco-2 cells incubated for 120 mins by LC-MS/MS analysis; assay type: ADME, cell-based

Chain of Cytochrome P450 2D6 (P10635 whole entry): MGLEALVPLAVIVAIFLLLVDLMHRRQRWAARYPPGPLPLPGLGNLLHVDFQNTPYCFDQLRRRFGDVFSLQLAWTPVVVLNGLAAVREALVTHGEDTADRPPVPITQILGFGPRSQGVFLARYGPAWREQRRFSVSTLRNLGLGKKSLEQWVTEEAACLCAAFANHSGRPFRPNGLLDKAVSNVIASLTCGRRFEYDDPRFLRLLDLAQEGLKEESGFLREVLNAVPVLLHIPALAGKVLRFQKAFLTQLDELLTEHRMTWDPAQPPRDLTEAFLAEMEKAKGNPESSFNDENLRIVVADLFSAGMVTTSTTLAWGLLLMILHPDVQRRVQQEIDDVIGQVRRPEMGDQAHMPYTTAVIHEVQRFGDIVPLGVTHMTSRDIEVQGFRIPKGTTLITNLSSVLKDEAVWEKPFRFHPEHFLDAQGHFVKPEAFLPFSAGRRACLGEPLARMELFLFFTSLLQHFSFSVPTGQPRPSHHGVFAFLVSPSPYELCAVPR

Row | Structure (SMILES) | IC50 [1] | IC50 [2] | inhibition [3] | Activity [4] | Activity [5] | Activity [6] | Activity [7] | Activity [8] | Activity [9] | inhibition in vivo at 5 mg/kg [10] | Activity [11] | Activity [12] | Activity [13] | Activity [14] | Activity [15] | Activity [16] | Activity [17] | Activity [18] | Activity [19] | Activity [20] | also measured
1 | Cc1cc(C(=O)Nc2ccc(C(F)(F)F)cc2)nn1Cc1cccc(N2CCN(C(=O)C3CC3)CC2)c1 | > 10000 nM | 830 nM | 55.4% | Active | Dose-Dependent Effect | Dose-Dependent Effect | Dose-Dependent Effect | Active | Active | 65.9% | 26.5% | Non-Toxic | Non-Toxic | Non-Toxic | Non-Toxic | Non-Toxic | Non-Toxic | Non-Toxic | Non-Toxic | Non-Toxic | Activity [21]: Non-Toxic; Activity [22]: Non-Toxic; Activity [23]: Non-Toxic; Activity [24]: Non-Toxic; Activity [25]: Non-Toxic; Activity [26]: Non-Toxic; Activity [27]: Non-Toxic; Activity [28]: Non-Toxic; Activity [29]: Non-Toxic; Activity [30]: Non-Toxic; Activity [31]: Non-Toxic; Activity [32]: Non-Toxic; Activity [33]: Non-Toxic; Activity [34]: Non-Toxic; Activity [35]: Non-Toxic; Papp A→B at 2 h [36]: 5.83 ×10⁻⁶ cm/s; Papp B→A at 2 h [37]: 3.08 ×10⁻⁶ cm/s
2 | Cc1cc(C(=O)Nc2ccc(OC(F)(F)F)cc2)nn1Cc1cccc(N2CCN(C(=O)C3CC3)CC2)c1 | > 10000 nM | 1140 nM | 48.6% | Active | Dose-Dependent Effect | Dose-Dependent Effect | Dose-Dependent Effect | Active | Active | 61.5% | 34.3% | Non-Toxic | Non-Toxic | Non-Toxic | Non-Toxic | Non-Toxic | Non-Toxic | Non-Toxic | Non-Toxic | Non-Toxic | Activity [21]: Non-Toxic; Activity [22]: Non-Toxic; Activity [23]: Non-Toxic; Activity [24]: Non-Toxic; Activity [25]: Non-Toxic; Activity [26]: Non-Toxic; Activity [27]: Non-Toxic; Activity [28]: Non-Toxic; Activity [29]: Non-Toxic; Activity [30]: Non-Toxic; Activity [31]: Non-Toxic; Activity [32]: Non-Toxic; Activity [33]: Non-Toxic; Activity [34]: Non-Toxic; Activity [35]: Non-Toxic; Papp A→B at 2 h [36]: 5.74 ×10⁻⁶ cm/s; Papp B→A at 2 h [37]: 3.25 ×10⁻⁶ cm/s
